Read-outs that look alike come from different tables or passages of the source.
Columns and labels:
[1] = system: swine coronary arteries; assay: In vitro vasorelaxation in isolated swine coronary arteries (PGF2α-contracted rings); assay type: cell-based; settings: Sus scrofa; 50% reduction in tension, 3 μM PGF2α; Table II; read-out: Vasorelaxation in Swine Coronary Artery/IC50
Description: Swine coronary arteries were obtained from a local slaughter house, dissected carefully and cleaned of fat, blood and adhering tissue. Rings approximately 2-3 mm wide were cut and transferred to water-jacketed tissue baths (10 ml) filled with warm (37° C.), oxygenated (O2 /CO2 :95%/5%) Krebs-Henseleit buffer and mounted on L-shaped hooks between stainless steel rods and a force transducer. […] Rings were equilibrated for 90 minutes with frequent buffer changes at a resting tension of 5 g In order to assure optimal tension development, arterial rings were primed twice with 36 mM KCl and once with 10 μm. PGF2α, before being exposed to 3 μM PGF2α. […] Tension achieved with 3 μM PGF2α was considered .equivalent to 100%; all other values were expressed as a percentage of that maximum.

[2] = system: normotensive anesthetized rat; assay: In vivo mean arterial pressure and heart rate in normotensive anesthetized rat; settings: iv
Description: Normotensive rats were anesthetized with sodium pentobarbital (50 mg/kg, j.p.) and placed on a heated surgical table. Cannulas were inserted into the femoral artery and […] to allow the measurement of arterial pressure and to facilitate the intravenous administration of test compounds. The animals was allowed to equilibrate for 10 minutes after surgery. Mean arterial pressure was continuously measured and recorded and heart rate was monitored using the arterial pressure pulse to trigger a cardiotachometer. After baseline parameters were established and recorded, increasing doses (1, 3, 10, 30, 100, 300 and 1000 μg/kg) of the compound of the invention to be tested were administered intravenously. Maximal changes in the cardiovascular parameters were observed after each dose of the adenosine agonist. Only one compound was administered per rat.

[3] = system: spontaneously hypertensive rat (SHR); assay: Oral antihypertensive activity in conscious spontaneously hypertensive rat (SHR); assay type: in vivo
Description: The oral antihypertensive activity of compounds of the invention were examined in conscious spontaneously hypertensive rats. The rats were anesthetized with sodium pentabarbatol (50 mg/kg i.p.). A telemetry transducer was implanted into the rats abdomen via midline incision. The cannula of the transducer was inserted into the abdomenal aorta to allow direct measurement of arterial pressure in the conscious SHR. The transducer was secured to the abdomenal wall. After recovery from surgery (minimum of seven days), the SHR were placed on a receiver plate and the transducer/transmitter was activated. Systolic, diastolic and mean arterial pressure and heart rate were recorded for 1.5 hours in the unrestrained conscious rat to establish a stable baseline. Each rat then received a single dose of the compound of the invention to be tested, or vehicle, and changes in arterial pressure and heart rate were monitored for 20 hours and recorded.

[4] = molecular target: T1, A1 adenosine receptor (Rattus norvegicus, UniProt P25099); assay: biochemical; settings: rat whole brain membranes, 3H-CHA; Table II; read-out: Adenosine Receptor Binding Activity/IC50 (nM) A1
T1 sequence (P25099 1-326): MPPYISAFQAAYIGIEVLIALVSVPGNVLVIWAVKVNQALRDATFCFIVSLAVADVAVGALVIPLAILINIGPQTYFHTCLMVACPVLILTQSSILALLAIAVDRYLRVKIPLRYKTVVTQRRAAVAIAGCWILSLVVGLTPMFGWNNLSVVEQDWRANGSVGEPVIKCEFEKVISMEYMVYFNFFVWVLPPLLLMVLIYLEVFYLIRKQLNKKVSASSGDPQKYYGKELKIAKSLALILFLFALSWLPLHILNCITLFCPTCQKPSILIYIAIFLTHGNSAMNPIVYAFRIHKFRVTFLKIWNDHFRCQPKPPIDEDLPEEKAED
Description: Non-specific binding was assessed in the presence of 1 mM theophylline.
The assays were run in glass test tubes in duplicate at 25° C. Once the membranes were added, the tubes were vortexed and incubated at 25° C. for 60 minutes (A1 assay) or 90 minutes (A2 assay) on a rotary shaker. The assay tubes were vortexed halfway through the incubation and again near the end. The assays were terminated by rapid filtration through 2.4 cm GF/B filters using a Brandel Cell Harvestor. The test tubes were washed three times with cold 50 mM tris-HCl (pH 7.7 or 7.4), with filtration being completed within 15 seconds. The damp filter circles were placed in glass scintillation vials filled with 10 ml of Aquasol II (New England Nuclear). The vials were allowed to shake overnight on a rotary shaker and were placed into a liquid scintillation analyzer for two minute counts. IC50 values for receptor binding, i.e. the concentration at which a compound of the invention displaced the radiolabeled standard, were obtained using a curve-fitting computer program (RS/1, Bolt, Beranek and Newman, Boston, Mass.).

[5] = molecular target: A2 adenosine receptor (Rattus norvegicus, UniProt P30543); assay: biochemical; settings: rat brain striatum membranes, 3H-CGS 21680; Table II; read-out: Adenosine Receptor Binding Activity/IC50 (nM) A2
Sequence of A2 adenosine receptor (P30543 whole entry): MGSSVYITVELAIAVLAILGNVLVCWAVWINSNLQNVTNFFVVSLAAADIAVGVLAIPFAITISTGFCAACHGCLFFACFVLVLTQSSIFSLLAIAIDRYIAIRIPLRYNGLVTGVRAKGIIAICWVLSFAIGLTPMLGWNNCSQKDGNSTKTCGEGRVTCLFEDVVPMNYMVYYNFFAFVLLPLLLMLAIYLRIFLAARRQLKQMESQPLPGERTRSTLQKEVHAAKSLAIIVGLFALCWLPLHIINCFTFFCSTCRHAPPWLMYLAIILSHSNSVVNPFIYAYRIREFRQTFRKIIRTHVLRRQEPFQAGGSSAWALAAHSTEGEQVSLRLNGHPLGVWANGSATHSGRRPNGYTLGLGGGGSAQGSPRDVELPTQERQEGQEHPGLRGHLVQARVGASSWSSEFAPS

[6] = dose lowering heart rate by 25%, read-out: Blood Press/Heart Rate Anesthetized Rat HR/ED25
[7] = dose lowering mean arterial pressure by 25%, read-out: Blood Press/Heart Rate Anesthetized Rat MAP/ED25

Row | SMILES | EC50 [1] [nM] | ED25 [2, 6] [mg/kg] | ED25 [2, 7] [mg/kg] | SHR HR/% ([3]; 5 mg/kg, D = decrease) [%] | SHR MAP/% ([3]; 5 mg/kg, D = decrease) [%] | SHR HR/% ([3]; 5 mg/kg, I = increase) [%] | IC50 [4] [nM] | IC50 [5] [nM] | SHR MAP/% ([3]; 1 mg/kg, D = decrease) [%] | SHR HR/% ([3]; 1 mg/kg, I = increase) [%]
1 | OC[C@H]1O[C@@H](n2cnc3c(N[C@@H]4CC=CC[C@H]4c4cccs4)ncnc32)[C@H](O)[C@@H]1O (relative stereo) [Example 4, N6-[trans-2-(thiophen-2-yl)cyclohex-4-en-yl]adenosine] | 730 | 0.019 | 0.013 | 20 | 28 | – | – | – | – | –
2 | OC[C@H]1O[C@@H](n2cnc3c(N[C@@H]4CCCC[C@H]4c4cccs4)ncnc32)[C@H](O)[C@@H]1O (relative stereo) [Example 7, N^6-[trans-2-(thiophen-2-yl)-cyclohex-1-yl]adenosine] | 4000 | 0.018 | 0.006 | 22 | 45 | – | – | – | – | –
3 | CCNC(=O)[C@H]1C[C@@H](n2cnc3c(NCCc4scnc4C)ncnc32)[C@H](O)[C@@H]1O (relative stereo) [Example 24, (±)-N^6-[2-(4"-methyl-5"-thiazolyl)thyl]carbocyclic adenosine-5'-N-ethyl carboxamide] | – | > 0.01 | 0.006 | – | 17 | 6 | – | – | – | –
4 | CCNC(=O)[C@H]1C[C@@H](n2cnc3c(NCCNc4nc5ccccc5s4)ncnc32)[C@H](O)[C@@H]1O (relative stereo) [Example 29, (±)-N^6-[2-(2'-aminobenzothia-zolyl)ethyl]carbocyclic adenosine-5'-N-ethyl carboxamide] | 22000 | 0.031 | 0.016 | 12 | 18 | – | 35.5 | > 1000 | – | –
5 | CCNC(=O)[C@H]1C[C@@H](n2cnc3c(N[C@H](C)Cc4cccs4)ncnc32)[C@H](O)[C@@H]1O (single isomer, unassigned) [Example 27] | 43 | – | – | – | – | – | – | – | 27 | 1
6 | CCNC(=O)[C@H]1C[C@@H](n2cnc3c(N[C@H](C)Cc4ccc(Cl)s4)ncnc32)[C@@H]2OC(C)(C)O[C@@H]21 [6(1), (-)-[2S-[2α,3α-dimethylmethylenedioxy-4-β-[N6-[2-(5-chloro-2-thienyl)-(1R)-1-methylethyl]amino]-9-adenyl]cyclopentane]-1-β-N-ethylcarboxamide] | 19100 | – | – | – | – | – | > 1000 | > 1000 | – | –
7 | OC[C@H]1O[C@@H](n2cnc3c(NCCNc4nc5ccccc5s4)ncnc32)[C@H](O)[C@@H]1O [Example 9, N^6-[2-(2'-aminobenzothia-zolyl)ethyl]adenosine] | 11900 | 0.004 | 0.005 | – | – | – | 4 | 1000 | – | –
8 | CCOc1ccc2nc(SCCNc3ncnc4c3ncn4[C@@H]3O[C@H](CO)[C@@H](O)[C@H]3O)sc2c1 [Example 11] | – | – | – | – | – | – | 7.4 | > 1000 | – | –
9 | Cc1ncsc1CCNc1ncnc2c1ncn2[C@@H]1O[C@H](CO)[C@@H](O)[C@H]1O [Example 12, N^6-[2-(4'-methylthiazol-5'-yl)-ethyl]adenosine] | 500 | 0.017 | 0.004 | – | – | – | 23 | 224 | – | –
10 | OC[C@H]1O[C@@H](n2cnc3c(NCCc4nccs4)ncnc32)[C@H](O)[C@@H]1O [Example 13, N^6-[2-(2'-thiazolyl)ethyl]-adenosine] | 240 | > 0.01 | 0.003 | – | – | – | 41 | 191 | – | –
